Test results taken from patent US20200392150A1, “Diaryl-B-Lactam Compound and Preparation Method and Pharmaceutical Use Thereof” (Fudan University, priority 2016, published 2020).
Entries after “also recorded” stand apart in the source; their conditions may differ.

Experiments:
[1] = tested on: KM mice; test: Acute toxicity assay; format: in vivo; details: for No. of dead mice 5-14 days / No. of dead mice 1 day / No. of dead mice 2 days / No. of dead mice 3 days / No. of dead mice 4 days / Survival (%) on day 14 / Total death: single i.p. injection
Description: KM mice were housed individually in a specific pathogen free facility. Groups of mice (n=10 per group, half male and half female) were injected intraperitoneally once with various dosages of 69 (95, 70, 50, 35, 25 mg/kg), 70 (500, 425, 350, 275, 200 mg/kg), 97 (275, 200, 150, 125 and 100 mg/kg) or vehicle (8.3% cremohorp EL and 8.3% alcohol in PBS) as negative control, respectively. 69, 70 and 97 was dissolved in cremeohore EL and alcohol mixture (1:1, v/v) and further diluted with PBS (1:5, v/v). The death of mice were monitored daily and recorded up to 14 days after injection.

[2] = tested on: Bax, p53 and cleaved-PARP in HeLa cells; test: Expression level of apoptosis associated proteins; format: cell-based, human; details: western blotting and qPCR
Description: A. Western blotting: After being treated with candidate compound, cells were harvested and lysed. Then, the lysate was isolated by ultracentrifuge and quantified by BCA assay according to the protocol. After being denatured, equivalent protein of each sample was separated by SDSPAGE gel and wet-transferred onto 0.22 μm nitrocellulose membrane. After being blocked by PBS containing 5% skim milk, the membrane was incubated with primary antibody at 4° C. overnight and secondary antibody at room temperature for 2 h and then visualized by enhanced chemiluminescence kit (Thermo Fisher, USA), sequentially.
B. Quantitative PCR assay: HeLa cells were treated with 69, 70 or 97. The expression level of mRNA of target proteins was tested with qPCR kit (Takara).

[3] = tested on: tubulin in SKOV-3 cells; test: Immunofluorescent analysis of tubulin morphology; format: cell-based, human; details: 24 h
Description: After treatment with diluent (0.2% DMSO) or tested compounds at indicated concentrations for 24 h, SKOV-3 cells were fixed with methanol, permeabilized with 0.1% Triton X-100 in PBS and blocked by goat serum. Then the cells were incubated with a-tubulin antibody at 4° C. overnight, followed by incubation with Alexa 488 labeled secondary antibody (Jackson ImmunoResearch) at RT for 1 h. After being stained with DAPI, cells were examined and photographed with a Leica SP5 co-focal fluorescence microscope.

[4] = tested on: VEGF induced angiogenesis; test: Matrigel plug assay; format: in vivo, Balb/C nude mice; details: nude mice, s.c. matrigel with 100 ng/mL VEGF-A165, 2 weeks
Description: 6 weeks old female Balb/C nude mice were purchased from Shanghai Slac Laboratory Animal Co. Ltd. (Shanghai, China). Matrigel containing 100 ng/mL human recombinant VEGF-A165 (Peprotech, Rocky Hill, N.J.) were mixed with indicated concentrations of 69, 70 and 97, or diluent (0.2% DMSO) as negative control at 4° C. Then, 0.5 mL of the matrigel mixture per mouse was injected subcutaneously into nude mice (n=4) in the dorsal region to generate matrigel plugs. 2 weeks later, the mice were sacrificed and matrigel plugs were recovered. Representative data from three independent experiments were shown.

[5] = target: T1, Pig brain tubulin (Sus scrofa, UniProt P02550+P02554); test: In vitro tubulin polymerization assay; format: biochemical
T1 construct: purchased; host or cells: pig brain
Description: In vitro tubulin polymerization assay Pig brain tubulin was obtained commercially and stored in aliquots at −70° C. […] The absorbance of wavelength at 340 nm was detected every 1 min for 20 min by Spectra Max 190 spectrophotometer (Molecular Device) at 37° C. The results were indicated as mean values from three independent determinations.

[6] = tested on: Hela cells; test: Cell cycle analysis; format: cell-based, human; details: 24 h
Description: 2*10^5 Hela cells per well were seeded into six-well plate and allowed to adhere overnight at 37° C. After treatment with indicated concentrations of 69, 70 and 97, CA-4 as positive control or diluent (0.2% DMSO) as negative control for 24 h, cells were harvested, washed twice with PBS and fixed with 75% ethanol at −20° C. overnight. Then cells were stained with propidium iodide dye (BD Biosciences) for 15 min in dark conditions at room temperature, followed by subjected to flow cytometry (Cytomics FC 500MPL, Beckman Coulter) detection. The results were analyzed by Multicycle AV (for Windows, version 320) software and indicated as mean values from three independent determinations.

[7] = tested on: A2780 cells xenograft; test: Xenografts tumor growth assay in nude mice; format: in vivo, Balb/c nude mice; details: i.p. once every 2 days, 69 7.5 mg/kg, 70 12.5 mg/kg, 97 4 or 8 mg/kg
Description: 6 weeks old female Balb/c nude mice were purchased from Shanghai Slac Laboratory Animal Co. Ltd. (Shanghai, China). 2*10^6 A2780 cells suspended in 0.2 mL PBS per mouse was injected subcutaneously into the nude mice. […] Administration of agents or vehicle, or agents and measurement of tumor volumes with a digital caliper was done once every 2 days. Tumor volumes were calculated as volume=shortest diameter (W)^2*longest diameter (L)*0.52. When the average tumor volumes of vehicle treated group reached 2000 mm^3 in diameter, the mice were sacrificed and the tumors were isolated and weighed. Visceral organs of the mice as well as solid tumors were further analyzed by H&E staining.

T1 sequence (P02554 whole entry): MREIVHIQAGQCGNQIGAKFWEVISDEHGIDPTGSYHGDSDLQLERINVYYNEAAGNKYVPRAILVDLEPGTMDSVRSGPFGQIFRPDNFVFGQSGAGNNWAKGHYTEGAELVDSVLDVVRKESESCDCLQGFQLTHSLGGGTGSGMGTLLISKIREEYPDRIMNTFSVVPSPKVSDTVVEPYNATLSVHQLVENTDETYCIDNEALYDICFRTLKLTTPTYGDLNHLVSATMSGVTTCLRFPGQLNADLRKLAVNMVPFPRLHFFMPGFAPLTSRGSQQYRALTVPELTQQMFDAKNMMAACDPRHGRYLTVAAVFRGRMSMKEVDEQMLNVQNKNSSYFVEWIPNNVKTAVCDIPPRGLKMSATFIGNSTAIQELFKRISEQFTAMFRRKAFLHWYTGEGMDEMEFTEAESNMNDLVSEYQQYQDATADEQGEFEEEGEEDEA
T1 sequence (P02550 whole entry): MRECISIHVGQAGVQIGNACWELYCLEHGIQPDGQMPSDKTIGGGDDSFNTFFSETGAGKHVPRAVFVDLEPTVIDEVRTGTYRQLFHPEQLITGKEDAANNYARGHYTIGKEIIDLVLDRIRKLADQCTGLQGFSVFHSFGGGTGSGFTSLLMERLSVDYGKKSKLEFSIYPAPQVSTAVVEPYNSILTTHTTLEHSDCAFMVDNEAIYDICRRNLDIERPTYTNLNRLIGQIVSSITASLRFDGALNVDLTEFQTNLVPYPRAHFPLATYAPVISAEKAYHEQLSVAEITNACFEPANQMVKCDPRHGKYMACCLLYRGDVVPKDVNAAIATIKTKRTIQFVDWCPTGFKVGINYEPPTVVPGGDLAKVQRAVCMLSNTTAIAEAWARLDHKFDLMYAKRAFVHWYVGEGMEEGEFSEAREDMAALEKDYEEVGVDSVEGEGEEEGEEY

In the case of COc1ccc([C@H]2[C@@H](C)C(=O)N2c2cc(OC)c(OC)c(OC)c2)cc1O [Compound 70, (3R,4R)-4-(3-hydroxy-4-methoxyphenyl)-3-methyl-1-(3,4,5-trimethoxyphenyl)azetidin-2-one], the “No. of dead mice 5-14 days” value ([1]; 200 mg/kg) is reported as 0, the “No. of dead mice 1 day” value ([1]; 200 mg/kg) is reported as 0 and the “No. of dead mice 2 days” value ([1]; 200 mg/kg) is reported as 0. The “No. of dead mice 3 days” value ([1]; 200 mg/kg) was 0, the “No. of dead mice 4 days” value ([1]; 200 mg/kg) was 0 and the “Survival (%) on day 14” value ([1]; 200 mg/kg) was 100%. The Total death ([1]; 200 mg/kg) was 0, the “No. of dead mice 5-14 days” value ([1]; 275 mg/kg) was 1 and the “No. of dead mice 1 day” value ([1]; 275 mg/kg) was 0. The “No. of dead mice 2 days” value ([1]; 275 mg/kg) was 0, the “No. of dead mice 3 days” value ([1]; 275 mg/kg) was 0 and the “No. of dead mice 4 days” value ([1]; 275 mg/kg) was 1. The “Survival (%) on day 14” value ([1]; 275 mg/kg) was 80%, the Total death ([1]; 275 mg/kg) was 2 and the “No. of dead mice 5-14 days” value ([1]; 350 mg/kg) was 0. The “No. of dead mice 1 day” value ([1]; 350 mg/kg) was 0, the “No. of dead mice 2 days” value ([1]; 350 mg/kg) was 0 and the “No. of dead mice 3 days” value ([1]; 350 mg/kg) was 1. For the same molecule, the “No. of dead mice 4 days” value ([1]; 350 mg/kg) was 0, the “Survival (%) on day 14” value ([1]; 350 mg/kg) was 90% and the Total death ([1]; 350 mg/kg) was 1. The “No. of dead mice 5-14 days” value ([1]; 425 mg/kg) was 0, the “No. of dead mice 1 day” value ([1]; 425 mg/kg) was 0 and the “No. of dead mice 2 days” value ([1]; 425 mg/kg) was 0. The “No. of dead mice 3 days” value ([1]; 425 mg/kg) was 3, the “No. of dead mice 4 days” value ([1]; 425 mg/kg) was 0 and the “Survival (%) on day 14” value ([1]; 425 mg/kg) was 70%. The Total death ([1]; 425 mg/kg) was 3, the “No. of dead mice 5-14 days” value ([1]; 500 mg/kg) was 0 and the “No. of dead mice 1 day” value ([1]; 500 mg/kg) was 0. For the same molecule, the “No. of dead mice 2 days” value ([1]; 500 mg/kg) was 0, the “No. of dead mice 3 days” value ([1]; 500 mg/kg) was 4 and the “No. of dead mice 4 days” value ([1]; 500 mg/kg) was 0. The “Survival (%) on day 14” value ([1]; 500 mg/kg) was 60%, the Total death ([1]; 500 mg/kg) was 4 and the “expression of Bax, p53 and cleaved-PARP” value [2] was “significantly promote the expression of the proapoptotic protein Bax, the tumor suppressor gene p53, and the cleaved DNA repair enzyme; also recorded: significantly induce the expression of Bax, p53 and cleaved-PARP”. For the same molecule, the “tubulin assembly (immunofluorescence)” value [3] was “significantly inhibit tubulin aggregation; also recorded: strongly inhibit tubulin assembly”, the “VEGF induced angiogenesis in matrigel plugs” value [4] was “significantly inhibit VEGF-mediated neovascularization; also recorded: suppressed VEGF induced angiogenesis” and the IC50 [5] was 1700 nM. For the same molecule, the “cell cycle arrest (G2/M, mitotic arrest)” value [6] was “significantly arrest cells in the G2/M phase; also recorded: significantly induce cellular mitotic arrest”, the “H&E staining of liver, kidney and spleen” value [7] was “no abnormal areas are observed in tissue staining of liver, kidney and spleen; also recorded: no detectable abnormalities were observed in liver, kidney and spleen” and the “H&E staining of tumor sections” value [7] was “cause tumor tissue to produce necrotic areas; also recorded: extensive areas of necrosis or cell death”. For the same molecule, the mouse body weight [7] was “no significant influence on mouse body weight; also recorded: no significant weight loss observed” and the “tumor growth in vivo” value [7] was “significantly inhibit tumor growth in vivo; also recorded: anti-tumor activities in vivo”.
In the case of COc1ccc([C@H]2[C@H](CO)C(=O)N2c2cc(OC)c(OC)c(OC)c2)cc1O [Compound 69, (3R,4R)-4-(3-hydroxy-4-methoxyphenyl)-3-(hydroxymethyl)-1-(3,4,5-trimethoxyphenyl)azetidin-2-one], the “No. of dead mice 5-14 days” value ([1]; 25 mg/kg) is reported as 0, the “No. of dead mice 1 day” value ([1]; 25 mg/kg) is reported as 0 and the “No. of dead mice 2 days” value ([1]; 25 mg/kg) is reported as 0. The “No. of dead mice 3 days” value ([1]; 25 mg/kg) was 0, the “No. of dead mice 4 days” value ([1]; 25 mg/kg) was 0 and the “Survival (%) on day 14” value ([1]; 25 mg/kg) was 100%. The Total death ([1]; 25 mg/kg) was 0, the “No. of dead mice 5-14 days” value ([1]; 35 mg/kg) was 0 and the “No. of dead mice 1 day” value ([1]; 35 mg/kg) was 0. The “No. of dead mice 2 days” value ([1]; 35 mg/kg) was 0, the “No. of dead mice 3 days” value ([1]; 35 mg/kg) was 1 and the “No. of dead mice 4 days” value ([1]; 35 mg/kg) was 0. The “Survival (%) on day 14” value ([1]; 35 mg/kg) was 90%, the Total death ([1]; 35 mg/kg) was 1 and the “No. of dead mice 5-14 days” value ([1]; 50 mg/kg) was 0. For the same molecule, the “No. of dead mice 1 day” value ([1]; 50 mg/kg) was 0, the “No. of dead mice 2 days” value ([1]; 50 mg/kg) was 0 and the “No. of dead mice 3 days” value ([1]; 50 mg/kg) was 1. The “No. of dead mice 4 days” value ([1]; 50 mg/kg) was 0, the “Survival (%) on day 14” value ([1]; 50 mg/kg) was 90% and the Total death ([1]; 50 mg/kg) was 1. For the same molecule, the “No. of dead mice 5-14 days” value ([1]; 70 mg/kg) was 1, the “No. of dead mice 1 day” value ([1]; 70 mg/kg) was 0 and the “No. of dead mice 2 days” value ([1]; 70 mg/kg) was 0. The “No. of dead mice 3 days” value ([1]; 70 mg/kg) was 4, the “No. of dead mice 4 days” value ([1]; 70 mg/kg) was 2 and the “Survival (%) on day 14” value ([1]; 70 mg/kg) was 30%. The Total death ([1]; 70 mg/kg) was 7, the “No. of dead mice 5-14 days” value ([1]; 95 mg/kg) was 1 and the “No. of dead mice 1 day” value ([1]; 95 mg/kg) was 0. The “No. of dead mice 2 days” value ([1]; 95 mg/kg) was 0, the “No. of dead mice 3 days” value ([1]; 95 mg/kg) was 6 and the “No. of dead mice 4 days” value ([1]; 95 mg/kg) was 1. For the same molecule, the “Survival (%) on day 14” value ([1]; 95 mg/kg) was 20%, the Total death ([1]; 95 mg/kg) was 8 and the LD50 ([1]; single intraperitoneal injection, 14 days) was 61.5 mg/kg. The “expression of Bax, p53 and cleaved-PARP” value [2] was “significantly promote the expression of the proapoptotic protein Bax, the tumor suppressor gene p53, and the cleaved DNA repair enzyme; also recorded: significantly induce the expression of Bax, p53 and cleaved-PARP”, the “tubulin assembly (immunofluorescence)” value [3] was “significantly inhibit tubulin aggregation; also recorded: strongly inhibit tubulin assembly” and the “VEGF induced angiogenesis in matrigel plugs” value [4] was “significantly inhibit VEGF-mediated neovascularization; also recorded: suppressed VEGF induced angiogenesis”. The IC50 [5] was 3500 nM, the “cell cycle arrest (G2/M, mitotic arrest)” value [6] was “significantly arrest cells in the G2/M phase; also recorded: significantly induce cellular mitotic arrest” and the “H&E staining of liver, kidney and spleen” value [7] was “no abnormal areas are observed in tissue staining of liver, kidney and spleen; also recorded: no detectable abnormalities were observed in liver, kidney and spleen”. For the same molecule, the “H&E staining of tumor sections” value [7] was “cause tumor tissue to produce necrotic areas; also recorded: extensive areas of necrosis or cell death”, the mouse body weight [7] was “no significant influence on mouse body weight; also recorded: no significant weight loss observed” and the “tumor growth in vivo” value [7] was “significantly inhibit tumor growth in vivo; also recorded: anti-tumor activities in vivo”.
